From the NIST ThermoML archive (doi:10.1021/acs.jced.8b00037)
± gives the expanded uncertainty stated by the source.

Assay: molar heat capacity at saturation pressure
Settings: Liquid, Vacuum adiabatic calorimetry

COC [dimethyl ether]
Settings	molar heat capacity [J/K/mol]
133.47 K	99.41 ± 0.73
136.11 K	98.99 ± 0.72
138.75 K	99.09 ± 0.73
141.37 K	98.75 ± 0.72
143.97 K	98.64 ± 0.72
146.56 K	98.99 ± 0.72
149.14 K	99.23 ± 0.73
151.7 K	98.99 ± 0.72
154.26 K	98.77 ± 0.72
156.8 K	98.65 ± 0.72
159.33 K	98.43 ± 0.72
161.84 K	98.67 ± 0.72
164.35 K	98.6 ± 0.72
166.84 K	98.46 ± 0.72
169.32 K	98.32 ± 0.72
171.79 K	98.39 ± 0.72
174.26 K	98.44 ± 0.72
176.71 K	98.47 ± 0.72
179.15 K	98.73 ± 0.72
181.58 K	98.78 ± 0.72
184 K	98.54 ± 0.72
186.41 K	98.8 ± 0.72
188.82 K	98.98 ± 0.72
191.21 K	98.9 ± 0.72
193.6 K	99.11 ± 0.73
195.98 K	98.99 ± 0.72
198.36 K	99.02 ± 0.72
200.73 K	99.09 ± 0.73
203.08 K	99.08 ± 0.73
205.44 K	99.32 ± 0.73
207.79 K	99.89 ± 0.73
210.13 K	100.15 ± 0.73
212.46 K	99.96 ± 0.73
214.79 K	100.15 ± 0.73
217.12 K	100.26 ± 0.73
219.43 K	100.09 ± 0.73
221.74 K	100.12 ± 0.73
224.04 K	100.21 ± 0.73
226.34 K	100.65 ± 0.74
228.64 K	101.1 ± 0.74
230.92 K	101.1 ± 0.74
233.21 K	101.41 ± 0.74
235.49 K	101.75 ± 0.74
237.76 K	101.68 ± 0.74
240.03 K	101.94 ± 0.74
242.31 K	102.15 ± 0.75
244.57 K	102.6 ± 0.75
246.84 K	102.48 ± 0.75
249.11 K	103.29 ± 0.75
251.38 K	102.81 ± 0.75
253.64 K	103 ± 0.75
255.9 K	103.44 ± 0.76
258.16 K	103.81 ± 0.76
260.42 K	104.08 ± 0.76
262.68 K	104.75 ± 0.76
264.94 K	105.51 ± 0.77
267.2 K	105.91 ± 0.77
269.47 K	106.42 ± 0.78
271.72 K	106.14 ± 0.77
273.98 K	106.27 ± 0.77
276.24 K	107.11 ± 0.78
278.5 K	108 ± 0.79
280.77 K	108.08 ± 0.79
283.02 K	108.35 ± 0.79
285.29 K	108.89 ± 0.79
287.55 K	109.42 ± 0.8
289.82 K	109.46 ± 0.8
292.08 K	110 ± 0.8
294.36 K	110.71 ± 0.81
296.63 K	110.49 ± 0.8
298.9 K	111.38 ± 0.81
301.19 K	111.57 ± 0.81
303.45 K	112.35 ± 0.82
305.74 K	112.73 ± 0.82
308.02 K	113.5 ± 0.83
310.3 K	114.89 ± 0.83
312.58 K	115.6 ± 0.84
314.87 K	116.12 ± 0.84
317.16 K	116.12 ± 0.84
319.44 K	117.62 ± 0.85
323.96 K	119.09 ± 0.86
326.26 K	120.03 ± 0.87
328.57 K	120.51 ± 0.87
330.88 K	121.43 ± 0.88
333.2 K	121.96 ± 0.88
335.54 K	122.78 ± 0.89
337.89 K	122.8 ± 0.89
340.24 K	124.08 ± 0.9
342.62 K	124.9 ± 0.9
345 K	125.19 ± 0.91
